Test results reported in the NIST ThermoML archive (doi:10.1016/j.jct.2005.12.005).
Numbers after ± are expanded uncertainties.

Assays:
[1] = 101 kPa, Liquid; for speed of sound: Sing-around technique in a fixed-path interferometer
[2] = refractive index (Na D-line) (dimensionless); details: 101.33 kPa, Liquid
[3] = xn = mol fraction of the nth substance listed; details: 101 kPa, Liquid; for speed of sound: Sing-around technique in a fixed-path interferometer
[4] = refractive index (Na D-line) (dimensionless); xn = mol fraction of the nth substance listed; details: 101 kPa, Liquid

Cc1ccc(C)cc1 [1,4-dimethylbenzene]
Details	mass density, 298.15 K [kg/m3]	mass density, 303.15 K [kg/m3]	mass density, 308.15 K [kg/m3]	refractive index, 298.15 K	refractive index, 303.15 K	refractive index, 308.15 K	speed of sound, 298.15 K [m/s]	viscosity, 298.15 K [mPa·s]	viscosity, 303.15 K [mPa·s]	viscosity, 308.15 K [mPa·s]
[1]	856.7 ± 0.9	852.3 ± 0.9	848 ± 0.9	–	–	–	1326 ± 6	0.611 ± 0.009	0.572 ± 0.009	0.54 ± 0.008
[2]	–	–	–	1.4926 ± 0.001	1.4893 ± 0.001	1.4867 ± 0.001	–	–	–	–

CC1CCCCC1 [methylcyclohexane]
Details	mass density, 298.15 K [kg/m3]	mass density, 303.15 K [kg/m3]	mass density, 308.15 K [kg/m3]	refractive index, 298.15 K	refractive index, 303.15 K	refractive index, 308.15 K	speed of sound, 298.15 K [m/s]	viscosity, 298.15 K [mPa·s]	viscosity, 303.15 K [mPa·s]	viscosity, 308.15 K [mPa·s]
[1]	765 ± 0.9	760.7 ± 0.9	756.3 ± 0.9	–	–	–	1217 ± 5	0.676 ± 0.009	0.631 ± 0.009	0.59 ± 0.008
[2]	–	–	–	1.4217 ± 0.001	1.4192 ± 0.001	1.4163 ± 0.001	–	–	–	–

COc1ccccc1 [anisole]
Details	mass density, 298.15 K [kg/m3]	mass density, 303.15 K [kg/m3]	mass density, 308.15 K [kg/m3]	refractive index, 298.15 K	refractive index, 303.15 K	refractive index, 308.15 K	speed of sound, 298.15 K [m/s]	viscosity, 298.15 K [mPa·s]	viscosity, 303.15 K [mPa·s]	viscosity, 308.15 K [mPa·s]
[1]	989.2 ± 0.4	984.5 ± 0.4	979.8 ± 0.4	–	–	–	1410 ± 6	1.008 ± 0.013	0.929 ± 0.012	0.861 ± 0.012
[2]	–	–	–	1.5136 ± 0.0025	1.5112 ± 0.0025	1.5088 ± 0.0025	–	–	–	–

CC1CCCCC1 [methylcyclohexane] + Cc1ccc(C)cc1
Details	mass density, 298.15 K [kg/m3]	mass density, 303.15 K [kg/m3]	mass density, 308.15 K [kg/m3]	refractive index, 298.15 K	refractive index, 303.15 K	refractive index, 308.15 K	speed of sound, 298.15 K [m/s]	viscosity, 298.15 K [mPa·s]	viscosity, 303.15 K [mPa·s]	viscosity, 308.15 K [mPa·s]
[3], x1 = 0.0993	846.6 ± 0.8	842.3 ± 0.9	837.9 ± 0.9	–	–	–	1315 ± 6	0.597 ± 0.009	0.566 ± 0.009	0.536 ± 0.008
[3], x1 = 0.2037	836.2 ± 0.8	831.8 ± 0.9	827.5 ± 0.9	–	–	–	1303 ± 5	0.59 ± 0.009	0.557 ± 0.009	0.523 ± 0.008
[3], x1 = 0.3028	826.4 ± 0.8	822.1 ± 0.9	817.8 ± 0.9	–	–	–	1293 ± 5	0.587 ± 0.009	0.553 ± 0.008	0.52 ± 0.008
[3], x1 = 0.4047	816.7 ± 0.8	812.3 ± 0.9	808 ± 0.9	–	–	–	1282 ± 5	0.586 ± 0.009	0.553 ± 0.008	0.52 ± 0.008
[3], x1 = 0.5382	804.2 ± 0.8	799.9 ± 0.9	795.5 ± 0.9	–	–	–	1268 ± 5	0.593 ± 0.009	0.559 ± 0.008	0.525 ± 0.008
[3], x1 = 0.6035	798.3 ± 0.8	794 ± 0.9	789.6 ± 0.9	–	–	–	1261 ± 5	0.597 ± 0.009	0.562 ± 0.008	0.528 ± 0.008
[3], x1 = 0.703	789.5 ± 0.8	785.1 ± 0.9	780.8 ± 0.9	–	–	–	1250 ± 5	0.608 ± 0.009	0.573 ± 0.008	0.537 ± 0.008
[3], x1 = 0.8037	780.8 ± 0.8	776.5 ± 0.9	772.2 ± 0.9	–	–	–	1239 ± 5	0.625 ± 0.009	0.588 ± 0.009	0.55 ± 0.008
[3], x1 = 0.8981	773 ± 0.9	768.7 ± 0.9	764.4 ± 0.9	–	–	–	1228 ± 5	0.646 ± 0.009	0.607 ± 0.009	0.569 ± 0.008
[3], x1 = 1	765 ± 0.9	760.7 ± 0.9	756.3 ± 0.9	–	–	–	1217 ± 5	0.676 ± 0.009	0.631 ± 0.009	0.59 ± 0.008
[4], x1 = 0.0993	–	–	–	1.4848 ± 0.001	1.482 ± 0.001	1.4793 ± 0.001	–	–	–	–
[4], x1 = 0.2037	–	–	–	1.4767 ± 0.001	1.4743 ± 0.001	1.4718 ± 0.001	–	–	–	–
[4], x1 = 0.3028	–	–	–	1.469 ± 0.001	1.4668 ± 0.001	1.4646 ± 0.001	–	–	–	–
[4], x1 = 0.4047	–	–	–	1.4615 ± 0.001	1.4594 ± 0.001	1.4572 ± 0.001	–	–	–	–
[4], x1 = 0.5382	–	–	–	1.4519 ± 0.001	1.4498 ± 0.001	1.4476 ± 0.001	–	–	–	–
[4], x1 = 0.6035	–	–	–	1.4473 ± 0.001	1.4451 ± 0.001	1.443 ± 0.001	–	–	–	–
[4], x1 = 0.703	–	–	–	1.4405 ± 0.001	1.4384 ± 0.001	1.4362 ± 0.001	–	–	–	–
[4], x1 = 0.8037	–	–	–	1.4338 ± 0.001	1.4314 ± 0.001	1.429 ± 0.001	–	–	–	–
[4], x1 = 0.8981	–	–	–	1.4279 ± 0.001	1.4253 ± 0.001	1.4228 ± 0.001	–	–	–	–
[4], x1 = 1	–	–	–	1.4217 ± 0.001	1.4192 ± 0.001	1.4163 ± 0.001	–	–	–	–
